This note sets out measurements from patent US20180296532A1, “RNA-Focused Small Molecules for Inhibiting RNA Toxicity in Myotonic Dystrophy” (The Scripps Research Institute, priority 2015, published 2018).

This experiment has as its system HSA^LR mice. The experiment is described as follows: Pre-mRNA splicing defects in HSA^LR mouse model of DM1. It counts as in vivo. To be noted: 40 mg/kg/day intraperitoneally for 18 days. From the text:
A mouse model of DM1 has been reported in which 250 rCUG repeats are expressed using an actin promoter (human skeletal actin long repeat, HSA^LR).^24 The presence of these repeats results in dysregulation of alternative splicing in the muscle-specific chloride ion channel (Clcn1) and the sarcoplasmic/endoplasmic reticulum calcium ATPase 1 (Serca1/Atp2a1) pre-mRNAs. Clcn1 exon 7a is excluded ˜100% in mRNA from normal adult mice: DM1 mice have an exclusion rate of ˜50% (FIG. 12A).
All experimental procedures, mouse handling, and husbandry were completed in accordance with the Association for Assessment and Accreditation of Laboratory Animal Care. A mouse model for DM1(67). HSALR in line 20b, was used. HSALR mice express human skeletal actin RNA with 250 CUG repeats in the 3′ UTR. Age- and gender-matched HSALR mice were injected intraperitoneally with either 40 mg/kg 2GN8 in water for treatment and 0.9% NaCl for control once per day for 18 days. Mice were sacrificed one day after the last injection, and the vastus muscle was obtained. RNA was extracted from the vastus tissue, and cDNA was synthesized as previously described.

Consider `N=C(N)Nc1ccc2nc(-c3ccc(-c4nc5ccc(NC(=N)N)cc5[nH]4)cc3)[nH]c2c1` [Compound 2GN8], for which the “Clcn1 pre-mRNA splicing defects” value is “improved to nearly wild type levels” and the “Serca1 pre-mRNA splicing defects” value was “improved to nearly wild type levels”.
